What was measured:
Type in all cases: functional
Mus musculus [1] = species: Mus musculus; test: Average change in body weight from onset to termination of drug therapy in mice bearing the L1210 Leukemia at 100 mg / kg
Mus musculus [2] = species: Mus musculus; test: At the 50 day survivors of mice bearing the L1210 Leukemia at 100 mg / kg; design: unit not given here
Mus musculus [3] = species: Mus musculus; test: Average change in body weight from onset to termination of drug therapy in mice bearing the P388 Leukemia at 100 mg / kg
Mus musculus [4] = species: Mus musculus; test: Average survival time (treated / control) x100 was calculated in mice bearing the L1210 Leukemia at 100 mg / kg
Mus musculus [5] = species: Mus musculus; test: Average survival time (treated / control) x100 was calculated in mice bearing the P388 Leukemia at 100 mg / kg (Mice that survived more than 50 days)
Mus musculus [6] = species: Mus musculus; test: At the 50 day survivors of mice bearing the P388 Leukemia at 100 mg / kg; design: unit not given here
Mus musculus [7] = species: Mus musculus; test: The average survival time(days) of mice bearing the P388 Leukemia at 100 mg / kg (Mice that survived more than 50 days)
Mus musculus [8] = species: Mus musculus; test: The average survival time (days) of mice bearing the L1210 Leukemia at 100 mg / kg
Mus musculus [9] = species: Mus musculus; test: Average survival time (treated / control) x100 was calculated in mice bearing the P388 Leukemia at 100 mg / kg
Mus musculus [10] = species: Mus musculus; test: At the 50 day survivors of mice bearing the L1210 Leukemia at 120 mg / kg; design: unit not given here
Mus musculus [11] = species: Mus musculus; test: The average survival time(days) of mice bearing the P388 Leukemia at 100 mg / kg
Mus musculus [12] = species: Mus musculus; test: Average change in body weight from onset to termination of drug therapy in mice bearing the L1210 Leukemia at 120 mg / kg
Mus musculus [13] = species: Mus musculus; test: Average survival time (treated / control) x100 was calculated in mice bearing the L1210 Leukemia at 120 mg / kg
Mus musculus [14] = species: Mus musculus; test: The average survival time (days) of mice bearing the L1210 Leukemia at 120 mg / kg
Mus musculus [15] = species: Mus musculus; test: At the 50 day survivors of mice bearing the P388 Leukemia at 80 mg / kg
Mus musculus [16] = species: Mus musculus; test: The average survival time(days) of mice bearing the P388 Leukemia at 80 mg / kg
Mus musculus [17] = species: Mus musculus; test: Average change in body weight from onset to termination of drug therapy in mice bearing the P388 Leukemia at 80 mg / kg
Mus musculus [18] = species: Mus musculus; test: Average survival time (treated / control) x100 was calculated in mice bearing the P388 Leukemia at 80 mg / kg
Mus musculus [19] = species: Mus musculus; test: Average change in body weight from onset to termination of drug therapy in mice bearing the L1210 Leukemia at 60 mg / kg
Mus musculus [20] = species: Mus musculus; test: Average survival time (treated / control) x100 was calculated in mice bearing the L1210 Leukemia at 60 mg / kg
Mus musculus [21] = species: Mus musculus; test: At the 50 day survivors of mice bearing the L1210 Leukemia at 60 mg / kg
Mus musculus [22] = species: Mus musculus; test: The average survival time (days) of mice bearing the L1210 Leukemia at 60 mg / kg
Mus musculus [23] = species: Mus musculus; test: The average survival time(days) of mice bearing the P388 Leukemia at 80 mg / kg (Mice that survived more than 50 days)
Mus musculus [24] = species: Mus musculus; test: Average survival time (treated / control) x100 was calculated in mice bearing the P388 Leukemia at 80 mg / kg (Mice that survived more than 50 days)
Mus musculus [25] = species: Mus musculus; test: The average survival time (days) of mice bearing the L1210 Leukemia at 120 mg / kg (Mice that survived more than 50 days)
Mus musculus [26] = species: Mus musculus; test: At the 50 day survivors of mice bearing the P388 Leukemia at 100 mg / kg (Mice that survived more than 50 days)
Mus musculus [27] = species: Mus musculus; test: Average survival time (treated / control) x100 was calculated in mice bearing the L1210 Leukemia at 120 mg / kg (Mice that survived more than 50 days)
Mus musculus [28] = species: Mus musculus; test: At the 50 day survivors of mice bearing the L1210 Leukemia at 80 mg / kg
Mus musculus [29] = species: Mus musculus; test: Average change in body weight from onset to termination of drug therapy in mice bearing the L1210 Leukemia at 80 mg / kg
Mus musculus [30] = species: Mus musculus; test: Average survival time (treated / control) x100 was calculated in mice bearing the L1210 Leukemia at 80 mg / kg (Mice that survived more than 50 days)
Mus musculus [31] = species: Mus musculus; test: The average survival time (days) of mice bearing the L1210 Leukemia at 80 mg / kg (Mice that survived more than 50 days)
Mus musculus [32] = species: Mus musculus; test: Average survival time (treated / control) x100 was calculated in mice bearing the L1210 Leukemia at 100 mg / kg (Mice that survived more than 50 days)
Mus musculus [33] = species: Mus musculus; test: Average survival time (treated / control) x100 was calculated in mice bearing the P388 Leukemia at 120 mg / kg (Mice that survived more than 50 days)
Mus musculus [34] = species: Mus musculus; test: The average survival time(days) of mice bearing the P388 Leukemia at 120 mg / kg (Mice that survived more than 50 days)
Mus musculus [35] = species: Mus musculus; test: Average change in body weight from onset to termination of drug therapy in mice bearing the P388 Leukemia at 120 mg / kg
Mus musculus [36] = species: Mus musculus; test: The average survival time (days) of mice bearing the L1210 Leukemia at 100 mg / kg (Mice that survived more than 50 days)
Mus musculus [37] = species: Mus musculus; test: At the 50 day survivors of mice bearing the P388 Leukemia at 120 mg / kg
Mus musculus [38] = species: Mus musculus; test: Average survival time (treated / control) x100 was calculated in mice bearing the L1210 Leukemia at 80 mg / kg
Mus musculus [39] = species: Mus musculus; test: The average survival time (days) of mice bearing the L1210 Leukemia at 80 mg / kg

SMILES | Average change in body weight (Mus musculus [1]) [%] | Survivors (Mus musculus [2]) | Average change in body weight (Mus musculus [3]) [%] | T/C (Mus musculus [4]) [%] | T/C (Mus musculus [5]) [%] | Survivors (Mus musculus [6]) | Average survival (Mus musculus [8]) [days] | T/C (Mus musculus [9]) [%] | Survivors (Mus musculus [10]) | Average survival (Mus musculus [11]) [days] | Average change in body weight (Mus musculus [12]) [%] | also measured
Cc1ccc(S(=O)(=O)N/N=C/c2cccc[n+]2[O-])cc1C(=O)O | -5 | 0 | -5.9 | 131 | 99 | 40 | 11.8 |  |  |  |  | Average survival (Mus musculus [7]): 9.3 days
O=C(O)Cc1ccc(S(=O)(=O)N/N=C/c2cccc[n+]2[O-])cc1 |  |  | -5.2 |  |  | 0 |  | 145 | 0 | 13.6 | 7.3 | T/C (Mus musculus [13]): 116%; Average survival (Mus musculus [14]): 10.4 days
Cc1ccc(C(=O)O)cc1S(=O)(=O)N/N=C/c1cccc[n+]1[O-] | 4.1 | 0 | 0 | 133 | 180 | 20 | 12 |  |  |  |  | Average survival (Mus musculus [7]): 17 days
O=C(O)c1cccc(S(=O)(=O)N/N=C/c2cccc[n+]2[O-])c1 |  |  |  |  |  |  |  |  | 0 |  | -2.4 | Survivors (Mus musculus [15]): 0; Average survival (Mus musculus [16]): 13.8 days; Average change in body weight (Mus musculus [17]): -6.5%; T/C (Mus musculus [18]): 147%; T/C (Mus musculus [13]): 138%; Average survival (Mus musculus [14]): 12.4 days
O=C(O)c1ccc(S(=O)(=O)N/N=C/c2cccc[n+]2[O-])cc1 |  |  | -4.1 |  |  | 0 |  | 147 |  | 13.8 |  | Average change in body weight (Mus musculus [19]): 3.4%; T/C (Mus musculus [20]): 120%; Survivors (Mus musculus [21]): 0; Average survival (Mus musculus [22]): 10.8 days
COc1ccc(C(=O)O)cc1S(=O)(=O)N/N=C/c1cccc[n+]1[O-] | 8.1 | 0 |  | 129 |  |  | 11.6 |  |  |  |  | Survivors (Mus musculus [15]): 20; Average change in body weight (Mus musculus [17]): -3.1%; Average survival (Mus musculus [23]): 15 days; T/C (Mus musculus [24]): 160%
Cc1cc(C)c(S(=O)(=O)N/N=C/c2cccc[n+]2[O-])c(C)c1 |  |  | -9.3 |  | 180 |  |  |  | 40 | 17 | -1 | Average survival (Mus musculus [25]): 11.3 days; Survivors (Mus musculus [26]): 40; T/C (Mus musculus [27]): 126%
COc1ccc(S(=O)(=O)N/N=C/c2cccc[n+]2[O-])c(OC)c1 |  |  | -10.3 |  | 226 | 20 |  |  |  |  |  | Survivors (Mus musculus [28]): 20; Average change in body weight (Mus musculus [29]): -2.5%; T/C (Mus musculus [30]): 130%; Average survival (Mus musculus [7]): 21.2 days; Average survival (Mus musculus [31]): 11.7 days
CC(=O)Nc1ccc(S(=O)(=O)N/N=C/c2cccc[n+]2[O-])cc1 |  |  |  |  |  |  |  |  | 0 |  | 0 | Survivors (Mus musculus [15]): 0; Average survival (Mus musculus [16]): 14.8 days; Average change in body weight (Mus musculus [17]): -4.4%; T/C (Mus musculus [18]): 157%; T/C (Mus musculus [13]): 169%; Average survival (Mus musculus [14]): 15.2 days
COc1ccc(S(=O)(=O)N/N=C/c2cccc[n+]2[O-])cc1OC | -8.7 | 80 |  |  |  |  |  |  |  |  |  | T/C (Mus musculus [32]): 210%; T/C (Mus musculus [33]): 122%; Average survival (Mus musculus [34]): 11.5 days; Average change in body weight (Mus musculus [35]): -18.8%; Average survival (Mus musculus [36]): 19 days; Survivors (Mus musculus [37]): 60
O=S(=O)(N/N=C/c1cccc[n+]1[O-])c1ccc(O)cc1 | -0.8 | 0 | -15.4 | 136 |  | 0 | 12.2 | 170 |  | 16 |  | 
O=C(O)c1cc(S(=O)(=O)N/N=C/c2cccc[n+]2[O-])ccc1O |  |  | -9.8 |  |  | 0 |  | 147 |  | 13.8 |  | Survivors (Mus musculus [28]): 0; Average change in body weight (Mus musculus [29]): 0%; T/C (Mus musculus [38]): 156%; Average survival (Mus musculus [39]): 14 days
CN(C)c1ccc(S(=O)(=O)N/N=C/c2cccc[n+]2[O-])cc1 | -3.2 | 0 | -4.4 | 187 |  | 0 | 16.8 | 174 |  | 16.4 |  | 

— ChEMBL document CHEMBL1121450, “Synthesis and antineoplastic activity of phenyl-substituted benzenesulfonylhydrazones of 2-pyridinecarboxyaldehyde 1-oxide” (1980)
